# Laboratory results as given in article PMC7449217, “The FDA-Approved Drug Nelfinavir Inhibits Lytic Cell-Free but Not Cell-Associated Nonlytic Transmission of Human Adenovirus” (Antimicrobial Agents and Chemotherapy, 2020).
# Where a name gives a salt, the structure may show the parent alone. Read-outs that look alike come from different tables or passages of the source.
# How the values were obtained:
# A549 cells = experiment: TC50, number of nuclei in noninfected treated cells; assay type: cell-based, human
# Method: Per 96-well plate, 15,000 A549 cells, 10,000 HeLa cells, 30,000 HBECs, 30,000 HCE cells, or 30,000 CMT-93 cells were seeded in 100 μl of the respective supplemented medium and allowed to settle for 1 h at room temperature (RT) prior to cell culture incubation at 37°C with 5% CO2 and 95% humidity. The following day, the medium was replaced with 50 μl of the respective virus stock dilution giving rise to 5 to 50 plaques per 96-well plate. Fifty microliters of nelfinavir to obtain a 0.1 to 50 μM final concentration or the DMSO solvent control was also added, both in supplemented medium. For each experiment, a noninfected, treated control was performed. For uphill plaque assays, the medium volume was increased to 150 μl with identical virus and drug concentrations. For wash-in/washout experiments, the virus was incubated on cells in supplemented medium for 1 h at 37°C, cells were washed with PBS, and a 100-μl drug dilution in supplemented medium was added. All experiments were performed in four technical replicates or as indicated. Cells were incubated under standard cell culture conditions. At the indicated times postinfection, the cells were fixed, and the nuclei were stained for 1 h at RT by the addition of 33 μl 16% (wt/vol) paraformaldehyde (PFA) and 4 μg/ml Hoechst 33342 (Sigma-Aldrich, St. Louis, MO, USA) in PBS. Cells were washed three times with PBS and stored in PBS supplemented with 0.02% N3 for infections with viruses harboring a GFP transgene. For wild-type (wt) viruses, cells were quenched in PBS supplemented with 50 mM NH4Cl, permeabilized using 0.2% (vol/vol) Triton X-100 in PBS, and blocked with 0.5% (wt/vol) bovine serum albumin (BSA) in PBS. […] Plates were imaged on either an IXM-XL or an IXM-C automated high-throughput fluorescence microscope (Molecular Devices, San Jose, CA, USA) using a 4× objective in wide-field mode. Hoechst staining was recorded in the 4′,6-diamidino-2-phenylindole (DAPI) channel, the fluorescein isothiocyanate (FITC)/GFP channel was acquired for viral GFP, and the tetramethyl rhodamine isothiocyanate (TRITC)/Texas Red channel was acquired for hexon immunofluorescence staining.
# The infection phenotype for each well was quantified using Plaque2.0 ([101]). The number of plaques was determined based on the infection signal (viral GFP or hexon immunofluorescence staining). […] Data were plotted, and the EC50 (infected and treated cells), the TC50 (noninfected, treated cells), as well as the corresponding standard errors (SE) were determined using curve fitting in GraphPad (version 8.1.2; GraphPad Software, Inc.) using three-parameter inhibitor concentration-versus-response nonlinear regression. The mean TI50 was calculated as the […] ratio of the means. The TI50 SE was calculated by error propagation.
# CMT-93 cells = experiment: as above; assay type: cell-based, mouse; conditions: noninfected CMT-93, nuclei, 4 dpi
# Method: Per 96-well plate, 15,000 A549 cells, 10,000 HeLa cells, 30,000 HBECs, 30,000 HCE cells, or 30,000 CMT-93 cells were seeded in 100 μl of the respective supplemented medium and allowed to settle for 1 h at room temperature (RT) prior to cell culture incubation at 37°C with 5% CO2 and 95% humidity. The following day, the medium was replaced with 50 μl of the respective virus stock dilution giving rise to 5 to 50 plaques per 96-well plate. Fifty microliters of nelfinavir to obtain a 0.1 to 50 μM final concentration or the DMSO solvent control was also added, both in supplemented medium. For each experiment, a noninfected, treated control was performed. […] Plates were imaged on either an IXM-XL or an IXM-C automated high-throughput fluorescence microscope (Molecular Devices, San Jose, CA, USA) using a 4× objective in wide-field mode. Hoechst staining was recorded in the 4′,6-diamidino-2-phenylindole (DAPI) channel, the fluorescein isothiocyanate (FITC)/GFP channel was acquired for viral GFP, and the tetramethyl rhodamine isothiocyanate (TRITC)/Texas Red channel was acquired for hexon immunofluorescence staining.
# The infection phenotype for each well was quantified using Plaque2.0 ([101]). The number of plaques was determined based on the infection signal (viral GFP or hexon immunofluorescence staining). […] The mean TI50 was calculated as the EC50/TC50 ratio of the means. […]
# HAdV-C2-dE3B-GFP [1] = experiment: microbe, parasite or virus in culture; assay type: cell-based, human adenovirus; conditions: for EC50: Human adenovirus sp.
# Method: Per 96-well plate, 15,000 A549 cells, 10,000 HeLa cells, 30,000 HBECs, 30,000 HCE cells, or 30,000 CMT-93 cells were seeded in 100 μl of the respective supplemented medium and allowed to settle for 1 h at room temperature (RT) prior to cell culture incubation at 37°C with 5% CO2 and 95% humidity. The following day, the medium was replaced with 50 μl of the respective virus stock dilution giving rise to 5 to 50 plaques per 96-well plate. Fifty microliters of nelfinavir to obtain a 0.1 to 50 μM final concentration or the DMSO solvent control was also added, both in supplemented medium. For each experiment, a noninfected, treated control was performed. For uphill plaque assays, the medium volume was increased to 150 μl with identical virus and drug concentrations. For wash-in/washout experiments, the virus was incubated on cells in supplemented medium for 1 h at 37°C, cells were washed with PBS, and a 100-μl drug dilution in supplemented medium was added. All experiments were performed in four technical replicates or as indicated. Cells were incubated under standard cell culture conditions. At the indicated times postinfection, the cells were fixed, and the nuclei were stained for 1 h at RT by the addition of 33 μl 16% (wt/vol) paraformaldehyde (PFA) and 4 μg/ml Hoechst 33342 (Sigma-Aldrich, St. Louis, MO, USA) in PBS. Cells were washed three times with PBS and stored in PBS supplemented with 0.02% N3 for infections with viruses harboring a GFP transgene. For wild-type (wt) viruses, cells were quenched in PBS supplemented with 50 mM NH4Cl, permeabilized using 0.2% (vol/vol) Triton X-100 in PBS, and blocked with 0.5% (wt/vol) bovine serum albumin (BSA) in PBS. Cells were incubated with 381.7 ng/ml mouse anti-HAdV hexon protein antibody (Mab8052; Sigma-Aldrich, St. Louis, MO, USA) and subsequently stained using 2 μg/ml goat anti-mouse-Alexa Fluor 594 (catalog number A21203 or A32742; Thermo Fisher Scientific, Waltham, MA, USA). Plates were imaged on either an IXM-XL or an IXM-C automated high-throughput fluorescence microscope (Molecular Devices, San Jose, CA, USA) using a 4× objective in wide-field mode. Hoechst staining was recorded in the 4′,6-diamidino-2-phenylindole (DAPI) channel, the fluorescein isothiocyanate (FITC)/GFP channel was acquired for viral GFP, and the tetramethyl rhodamine isothiocyanate (TRITC)/Texas Red channel was acquired for hexon immunofluorescence staining.
# The infection phenotype for each well was quantified using Plaque2.0 ([101]). The number of plaques was determined based on the infection signal (viral GFP or hexon immunofluorescence staining). Nuclei stained with Hoechst were segmented by using CellProfiler ([178]). Infected nuclei were classified based on the median infection signal per nucleus in CellProfiler. Data were plotted, and the EC50 (infected and treated cells), the TC50 (noninfected, treated cells), as well as the corresponding standard errors (SE) were determined using curve fitting in GraphPad (version 8.1.2; GraphPad Software, Inc.) using three-parameter inhibitor concentration-versus-response nonlinear regression. The mean TI50 was calculated as the […] ratio of the means. The TI50 SE was calculated by error propagation.
# HAdV-C2-dE3B-GFP [2] = experiment: quantification of viral protein expression (CMV-GFP, hexon) in infected A549 cells; assay type: cell-based, human adenovirus; conditions: 46 hpi, at the tested concentrations
# Method: Infection, HAdV hexon immunofluorescence staining, and imaging were performed in technical quadruplicates, as described above for the microscopic plaque assay. Single nuclei (Hoechst) were segmented using CellProfiler ([178]). Median GFP and hexon signals per nucleus were measured, and infected nuclei were classified using the median GFP or hexon signal per nucleus. Subsequently, the mean and standard deviation (SD) over all infected nuclei per well were calculated using R version 3.3.2 ([179]). Data were plotted using GraphPad (version 8.1.2; GraphPad Software, Inc.).
# HAdV-C2-dE3B-GFP [3] = system: HAdV-C2-dE3B-GFP; set-up: method as in earlier work; conditions: A549, 1.25 μM compound, normalized to neg. ctr., cited from earlier work
structure (smiles),measurement,setting,value
"Cc1c(O)cccc1C(=O)N[C@@H](CSc1ccccc1)[C@H](O)CN1C[C@H]2CCCC[C@H]2C[C@H]1C(=O)NC(C)(C)C [Nelfinavir, Nelfinavir mesylate]",TC50,"A549 cells; human, 1 days",49500 nM
same,TC50 (50% loss of cell nuclei),"A549 cells; human, 82 h",10010 nM
same,TC50,"A549 cells; human, 6 days",19080 nM
same,TC50,"A549 cells; noninfected A549, nuclei, 3 dpi, line HAdV-C5",11910 nM
same,TC50,CMT-93 cells; line MAdV-1-pIX-FS2A-GFP,21290 nM
same,TC50,CMT-93 cells; line MAdV-3-pIX-FS2A-GFP,26070 nM
same,TI50 (TC50/IC50),"HAdV-C2-dE3B-GFP [1]; HAdV-C2-dE3B-GFP in A549, 3 dpi, GFP",66.80
same,TI50 (TC50/IC50),"HAdV-C2-dE3B-GFP [1]; HAdV-C2-dE3B-GFP in A549, 3 dpi, GFP, listed as nelfinavir",66.8
same,TI50 (TC50/IC50),"HAdV-C2-dE3B-GFP [1]; HAdV-C2-dE3B-GFP in A549, 4 dpi, GFP",29.43
same,TI50 (TC50/IC50),"HAdV-C2-dE3B-GFP [1]; HAdV-C2-dE3B-GFP in A549, 4 dpi, Hexon",29.87
same,EC50,"HAdV-C2-dE3B-GFP [1]; A549, HAdV-C2-dE3B-GFP in A549, fixation 3 dpi (72 hpi), read-out GFP, plaque numbers",220 nM
same,EC50,"HAdV-C2-dE3B-GFP [1]; A549, HAdV-C2-dE3B-GFP in A549, fixation 4 dpi, read-out GFP, plaque numbers",440 nM
same,EC50,"HAdV-C2-dE3B-GFP [1]; A549, HAdV-C2-dE3B-GFP in A549, fixation 4 dpi, read-out Hexon, plaque numbers",430 nM
same,EC50,"HAdV-C2-dE3B-GFP [1]; A549, read-out: EC50 of fluorescent-plaque formation, HAdV-C2-dE3B-GFP, A549 cells, 82 hpi, plaque numbers",370 nM
same,median therapeutic index (TI50),"HAdV-C2-dE3B-GFP [1]; ratio TC50 (nuclei) / EC50 (plaques), A549 cells, 82 hpi",27.1
same,effect on GFP or hexon expression,HAdV-C2-dE3B-GFP [2],no effect
same,Normalized mean read-outs: Infected nuclei,HAdV-C2-dE3B-GFP [3]; analysis EPFL,0.20
same,Normalized mean read-outs: Infection index,HAdV-C2-dE3B-GFP [3]; analysis EPFL,0.27
same,Normalized mean read-outs: Nuclei,HAdV-C2-dE3B-GFP [3]; analysis EPFL,0.74
same,Normalized mean read-outs: Plaques,HAdV-C2-dE3B-GFP [3]; analysis EPFL,0.00
same,Normalized mean read-outs: Virus intensity,HAdV-C2-dE3B-GFP [3]; analysis EPFL,0.33 AU
same,Normalized mean read-outs: Infected nuclei,HAdV-C2-dE3B-GFP [3]; analysis UZH,0.20
same,Normalized mean read-outs: Infection index,HAdV-C2-dE3B-GFP [3]; analysis UZH,0.23
same,Normalized mean read-outs: Nuclei,HAdV-C2-dE3B-GFP [3]; analysis UZH,0.85
same,Normalized mean read-outs: Plaques,HAdV-C2-dE3B-GFP [3]; analysis UZH,0.0274
same,Normalized mean read-outs: Virus intensity,HAdV-C2-dE3B-GFP [3]; analysis UZH,0.30 AU
